Test results from patent US8362000B2, “Azetidinyl diamides as monoacylglycerol lipase inhibitors” (Janssen Pharmaceutica NV, priority 2009, dated 2013).

Target: T1, mutant MGL (Homo sapiens, UniProt Q99685, L169S/L176S)
T1 sequence (Q99685 1-303 L169S/L176S): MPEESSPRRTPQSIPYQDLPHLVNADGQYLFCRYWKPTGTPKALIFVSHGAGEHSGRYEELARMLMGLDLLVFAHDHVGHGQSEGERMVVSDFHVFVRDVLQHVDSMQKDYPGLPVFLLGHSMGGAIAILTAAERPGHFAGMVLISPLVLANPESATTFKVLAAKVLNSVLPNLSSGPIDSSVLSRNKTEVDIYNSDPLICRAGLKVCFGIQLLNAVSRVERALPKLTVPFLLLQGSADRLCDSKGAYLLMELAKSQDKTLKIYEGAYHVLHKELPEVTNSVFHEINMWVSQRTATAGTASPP
Test: MGL ThermoFluor assay - mutant
Type: binding
Conditions: ThermoFluor concentration-response, read-out: MGL mutant ThermoFluor Kd

Kd [µM] | Structure (SMILES)
0.286 | O=C(c1ccc(-c2ccccc2)cc1)N1CC(N2CCN(C(=O)c3ccc(Br)s3)CC2)C1 [Cpd 15, 1-[1-(Biphenyl-4-ylcarbonyl)azetidin-3-yl]-4-[(5-bromothiophen-2-yl)carbonyl]piperazine]
0.00067 | O=C(c1ccc(-c2cccc(Cl)c2)cc1)N1CC(N2CCN(C(=O)c3nccs3)CC2)C1 [Cpd 162, 1-{1-[(3′-Chlorobiphenyl-4-yl)carbonyl]azetidin-3-yl}-4-(1,3-thiazol-2-ylcarbonyl)piperazine]
0.005 | O=C(c1ccc(Oc2ccc(Cl)cc2)cc1)N1CC(N2CCN(C(=O)c3nccs3)CC2)C1 [Cpd 420, 1-(1-{[4-(4-Chlorophenoxy)phenyl]carbonyl}azetidin-3-yl)-4-(1,3-thiazol-2-ylcarbonyl)piperazine]
5.02 | O=C(c1ccccc1)N1CCN(C2CN(C(=O)c3cnn(-c4ccccc4)c3C(F)(F)F)C2)CC1 [Cpd 626, 1-(Phenylcarbonyl)-4-(1-{[1-phenyl-5-(trifluoromethyl)-1H-pyrazol-4-yl]carbonyl}azetidin-3-yl)piperazine]
4.07 | O=C(c1ccc(-c2ccccc2)cc1)N1CCN(C2CN(C(=O)c3ncccn3)C2)CC1 [Cpd 1400, 2-({3-[4-(Biphenyl-4-ylcarbonyl)piperazin-1-yl]azetidin-1-yl}carbonyl)pyrimidine]
10 | O=C(c1ccccc1)N1CCN(C2CN(C(=O)c3cccc(-n4cccc4)c3)C2)CC1 [Cpd 627, 1-(Phenylcarbonyl)-4-(1-{[3-(1H-pyrrol-1-yl)phenyl]carbonyl}azetidin-3-yl)piperazine]
0.576 | O=C(c1ccc(OCc2ccc(Cl)s2)cc1)N1CC(N2CCN(C(=O)C(F)(F)F)CC2)C1 [Cpd 961]
0.0333 | CC(C)(C)OC(=O)N1CCC(c2ccc(C(=O)N3CC(N4CCN(C(=O)c5ccccc5)CC4)C3)cc2)CC1 [Cpd 109, tert-Butyl 4-[4-({3-[4-(phenylcarbonyl)piperazin-1-yl]azetidin-1-yl}carbonyl)phenyl]piperidine-1-carboxylate]
0.0059 | O=C(c1ccccc1)N1CCN(C2CN(C(=O)c3ccc(C4CCCCC4)cc3)C2)CC1 [Cpd 1, 1-{1-[(4-Cyclohexylphenyl)carbonyl]azetidin-3-yl}-4-(phenylcarbonyl)-piperazine]
0.254 | O=C(c1ccccc1)N1CCN(C2CN(C(=O)C3CCC(c4ccc(Cl)cc4)CC3)C2)CC1 (stereo not shown) [Cpd 503]
0.333 | Cc1nc(COc2ccc(Cl)cc2)sc1C(=O)N1CC(N2CCN(C(=O)c3ccccc3)CC2)C1 [Cpd 558, 1-[1-({2-[(4-Chlorophenoxy)methyl]-4-methyl-1,3-thiazol-5-yl}carbonyl)azetidin-3-yl]-4-(phenylcarbonyl)piperazine]
1.11 | O=C(c1ccc(CSc2cccc(Cl)c2)cc1)N1CC(N2CCN(C(=O)C(F)(F)F)CC2)C1 [Cpd 955]
0.88 | O=C(c1ccccc1)N1CCN(C2CN(C(=O)c3cc(-c4ccccc4)oc3C(F)(F)F)C2)CC1 [Cpd 624, 1-(Phenylcarbonyl)-4-(1-{[5-phenyl-2-(trifluoromethyl)furan-3-yl]carbonyl}azetidin-3-yl)piperazine]
0.008 | O=C(c1ccc(SCc2ccc(Cl)cc2)cc1)N1CC(N2CCN(C(=O)c3nccs3)CC2)C1 [Cpd 415]
1 | O=C(c1cscn1)N1CCN(C2CN(C(=O)C3CCC(c4ccc(Cl)cc4)CC3)C2)CC1 (stereo not shown) [Cpd 643]
0.708 | N#Cc1ccc(-c2ccc(C(=O)N3CC(N4CCN(C(=O)c5cscn5)CC4)C3)cc2)cc1 [Cpd 171]
9.1 | O=C(c1ccc(-c2ccccc2)cc1)N1CC(N2CCN(C(=O)c3ccccc3)C(CO)C2)C1 (stereo not shown) [Cpd 460, {4-[1-(Biphenyl-4-ylcarbonyl)azetidin-3-yl]-1-(phenylcarbonyl)piperazin-2-yl}methanol]
0.2 | O=C(c1ccc(O[C@H]2CCN(C(=O)N3CCCC3)C2)c(I)c1)N1CC(N2CCN(C(=O)c3nccs3)CC2)C1 [Cpd 452]
3.6 | O=C(c1ccccc1)N1CCN(C2CN(C(=O)c3ccc(-n4ccc(C(F)(F)F)n4)cc3)C2)CC1 [Cpd 622, 1-(Phenylcarbonyl)-4-[1-({4-[3-(trifluoromethyl)-1H-pyrazol-1-yl]phenyl}carbonyl)azetidin-3-yl]piperazine]
6.67 | Cc1ccc(Sc2ncccc2C(=O)N2CC(N3CCN(C(=O)c4cscn4)CC3)C2)cc1 [Cpd 479]
> 76.7 | O=C(c1ccccc1)N1CCN(C2CN(C(=O)c3ccccc3C3CCNC3)C2)CC1 (stereo not shown) [Cpd 456, 1-(Phenylcarbonyl)-4-{1-[(2-pyrrolidin-3-ylphenyl)carbonyl]azetidin-3-yl}piperazine]
0.089 | O=C(c1ccccc1)N1CCN(C2CN(C(=O)c3ccc(NC4CCC(F)(F)CC4)cc3)C2)CC1 [Cpd 530]
1.11 | CC1CN(C2CN(C(=O)c3cccc(Oc4ccccc4)c3)C2)CCN1C(=O)c1nccs1 (stereo not shown) [Cpd 113]
10 | O=C(c1ccccc1)N1CCN(C2CN(C(=O)c3cnc(NCc4ccccc4)s3)C2)CC1 [Cpd 50, N-Benzyl-5-({3-[4-(phenylcarbonyl)piperazin-1-yl]azetidin-1-yl}carbonyl)-1,3-thiazol-2-amine]
0.154 | Cc1nc(-c2cccc(Cl)c2)sc1C(=O)N1CC(N2CCN(C(=O)c3ccccc3)CC2)C1 [Cpd 620, 1-(1-{[2-(3-Chlorophenyl)-4-methyl-1,3-thiazol-5-yl]carbonyl}azetidin-3-yl)-4-(phenylcarbonyl)piperazine]
0.556 | Cc1c(-c2ccccc2)oc2c(C(=O)N3CC(N4CCN(C(=O)c5ccccc5)CC4)C3)cccc2c1=O [Cpd 107, 3-Methyl-2-phenyl-8-({3-[4-(phenylcarbonyl)piperazin-1-yl]azetidin-1-yl}carbonyl)-4H-chromen-4-one]
5 | O=C(c1ccccc1)N1CCN(C2CN(C(=O)c3cccnc3Oc3ccc(Cl)cc3)C2)CC1 [Cpd 474, 1-(1-{[2-(4-Chlorophenoxy)pyridin-3-yl]carbonyl}azetidin-3-yl)-4-(phenylcarbonyl)piperazine]
0.18 | O=C(c1ccccc1)N1CCN(C2CN(C(=O)c3ccc(CSc4cccc(Cl)c4)cc3)C2)CC1 [Cpd 551]
0.556 | Cc1nc(C(=O)N2CCN(C3CN(C(=O)c4ccc(-c5ccccc5)cc4)C3)CC2)cs1 [Cpd 10, 1-[1-(Biphenyl-4-ylcarbonyl)azetidin-3-yl]-4-[(2-methyl-1,3-thiazol-4-yl)carbonyl]piperazine]

Same assay, conditions: ThermoFluor thermal stability binding assay, read-out: MGL mutant ThermoFluor Kd

Kd [µM] | Structure (SMILES)
10 | O=C(c1ccc(-c2ccccc2)cc1)N1CC(N2CCN(C(=O)c3cnon3)CC2)C1 [Cpd 308]
> 76.7 | CC(=O)N1c2ccc(Br)cc2CCC1C(=O)N1CC(N2CCN(C(=O)c3ccccc3)CC2)C1 (stereo not shown) [Cpd 378]
1.81 | O=C(c1cscn1)N1CCN(C2CN(C(=O)c3csc(-c4cc(Cl)cc(Cl)c4)n3)C2)CC1 [Cpd 1395]
0.206 | O=C(c1nccs1)N1CCN(C2CN(C(=O)c3nc(-c4ccccc4)oc3C(F)(F)F)C2)CC1 [Cpd 1385]
0.0494 | O=C(c1ccc2c(c1)CCCN2c1ccccc1)N1CC(N2CCN(C(=O)c3nccs3)CC2)C1 [Cpd 372, 1-Phenyl-6-({3-[4-(1,3-thiazol-2-ylcarbonyl)piperazin-1-yl]azetidin-1-yl}carbonyl)-1,2,3,4-tetrahydroquinoline]
4.27 | O=C(c1ccccc1)N1CCN(C2CN(C(=O)c3ccc(OCc4ccncc4)cc3)C2)CC1 [Cpd 396]
0.005 | Cc1nc(-c2cccc(C(F)(F)F)c2)sc1C(=O)N1CC(N2CCN(C(=O)c3nccs3)CC2)C1 [Cpd 1407, 1-[1-({4-Methyl-2-[3-(trifluoromethyl)phenyl]-1,3-thiazol-5-yl}carbonyl)azetidin-3-yl]-4-(1,3-thiazol-2-ylcarbonyl)piperazine]
0.004 | Cc1cc(C(=O)N2CC(N3CCN(C(=O)c4cscn4)CC3)C2)ccc1-c1cccc(C(F)(F)F)c1 [Cpd 242, 1-(1-{[2-Methyl-3′-(trifluoromethyl)biphenyl-4-yl]carbonyl}azetidin-3-yl)-4-(1,3-thiazol-4-ylcarbonyl)piperazine]
2.5 | O=C1Cc2cc(C(=O)N3CC(N4CCN(C(=O)c5nccs5)CC4)C3)ccc2N1 [Cpd 918]
0.002 | O=C(c1nccs1)N1CCN(C2CN(C(=O)c3ccc(-c4cccc(C(F)(F)F)c4)cc3F)C2)CC1 [Cpd 244, 1-(1-{[3-Fluoro-3′-(trifluoromethyl)biphenyl-4-yl]carbonyl}azetidin-3-yl)-4-(1,3-thiazol-2-ylcarbonyl)piperazine]
0.333 | O=C(C=Cc1ccc2ccccc2c1)N1CC(N2CCN(C(=O)c3nccs3)CC2)C1 [Cpd 297]
0.833 | O=C(/C=C/c1ccccc1Cl)N1CC(N2CCN(C(=O)c3nccs3)CC2)C1 [Cpd 295, 1-{1-[(2E)-3-(2-Chlorophenyl)prop-2-enoyl]azetidin-3-yl}-4-(1,3-thiazol-2-ylcarbonyl)piperazine]
> 76.7 | CC(=O)Nc1nc(C(=O)N2CCN(C3CN(C(=O)c4ccc(-c5ccccc5)cc4)C3)CC2)cs1 [Cpd 480]
1.32 | CC(=O)Nc1cccc(-c2ccc(C(=O)N3CC(N4CCN(C(=O)c5ccccc5)CC4)C3)cc2)c1 [Cpd 233, N-[4′-({3-[4-(Phenylcarbonyl)piperazin-1-yl]azetidin-1-yl}carbonyl)biphenyl-3-yl]acetamide]
0.4 | O=C(c1ccccc1)N1CCN(C2CN(C(=O)c3ccc(OCc4cccc(Br)n4)cc3)C2)CC1 [Cpd 552]
2.4 | CS(=O)(=O)N1CCCc2cc(C(=O)N3CC(N4CCN(C(=O)c5cscn5)CC4)C3)ccc21 [Cpd 362]

Same assay, conditions: ThermoFluor, compound concentration measured by qNMR, read-out: MGL mutant ThermoFluor qKd (μM) (using qNMR conc.)

Kd [µM] | Structure (SMILES)
0.512 | N#Cc1ccccc1-n1ccc2cc(C(=O)N3CC(N4CCN(C(=O)c5ccccc5)CC4)C3)ccc21 [Cpd 588, 2-[5-({3-[4-(Phenylcarbonyl)piperazin-1-yl]azetidin-1-yl}carbonyl)-1H-indol-1-yl]benzonitrile]
